Converted amounts (≈) assume the structure as drawn. Read-outs that look alike come from different tables or passages of the source.
Assays:
[1] = test system: Acinetobacter baumannii ATCC 17978; assay: Mouse thigh infection model; assay type: in vivo, BALB/c mice; settings: for Mean Change log CFU/g thigh 72 hr / Mean Change log CFU/g thigh 24 hr: vs. time 0 control; for Mean Log CFU/g thigh 72 hr: 72 hr treatment; for Mean Log CFU/g thigh 24 hr: 24 hr treatment; for efficacy in words, thigh model summary: 24 hr and 72 hr treatment
Procedure: (§1) Groups of 5 female specific-pathogen-free BALB/c mice weighing 18±2 g were used. In the 24 hr model (bacterial counts determined 24 hr after treatment start), mice were rendered neutropenic with cyclophosphamide intraperitoneal (IP) administration conducted at Days −4 (150 mg/kg), and day −1 (100 mg/kg). In the 72 hr model (bacterial counts determined 72 hr after treatment start), animals were rendered persistently neutropenic for the duration of the infection period with cyclophosphamide intraperitoneal (IP) administration conducted at Days −4 (150 mg/kg), −1 (100 mg/kg) and +1 (100 mg/kg). Persistent neutropenia is required to prevent pathogen clearance from thigh tissue in the 74 hr model. Nutritional supplementation (diet gel) plus saline SC injections were provided daily to help animals tolerate the cyclophosphamide treatment.
(§2) On day 0, animals were inoculated intramuscularly (0.1 ml/thigh) with a 1.67×10^4 inoculum count of Acinetobacter baumannii ATCC 17978. Vehicle control (40% Captisol), positive control (tigecycline) or test substances were then administered 2 hr post infection by the subcutaneous (SC) route of administration. Each dosing group consisted of 5 female mice. The MICs of the compounds against the test strain were 8 μg/ml, 2 μg/ml and […] for compound 201, compound 71 and compound 200, respectively. At 26 or 74 hours after inoculation (24 or 72 hr after treatment initiation), animals were euthanized with CO2 asphyxiation and the thigh tissue harvested from each of the test animals. The tissues were homogenized in 3 mL of PBS, pH 7.4 with a homogenizer. Homogenates, 0.1 mL, were used for serial 10-fold dilutions and plated onto NB agar for colony counts. Efficacy is calculated as the change in log CFU/g thigh vs. the time 0 (treatment initiation) control.

S. aureus ATCC 29213 = assay: Broth microdilution MIC assay; assay type: cell-based; settings: Staphylococcus aureus, ATCC29213; CA-MHB, 35° C., 20 hours
Procedure: (§3) The antibacterial activity of FabI inhibitors against select Gram-negative and Gram-positive bacterial species including susceptible and multi-drug resistant A. baumannii, E. coli, K. pneumoniae and S. aureus was tested using the broth microdilution Minimal Inhibitory Concentration (MIC) assay following CLSI guidelines for insoluble compounds. Test articles were serially diluted 2-fold in 100% dimethyl sulfoxide (DMSO) and then diluted 100-fold into cation adjusted Mueller-Hinton broth (CA-MHB) to achieve a 10-point test concentration range in 1% DMSO. Final compound concentrations were 0.016-8 μg/ml for S. aureus or 0.06-32 μg/ml for the Gram-negative species. MIC test plates were then prepared by transferring 100 μl of the final assay medium (test article in CA-MHB, 1% DMSO) into the appropriate wells of a sterile, low binding 96-well polystyrene plate. Direct colony suspension inoculums of the test strains were freshly prepared per CLSI guidelines, and the appropriate test wells were inoculated to achieve a final bacterial cell density of 5×10^5 CFU/ml. Growth control (no test article) and negative control (no bacterial inoculum) wells were also included. Exposure to light was minimized during all stages of assay preparation. […] Bacterial growth was then determined by measuring the optical density at 600 nm (OD600) using a SpectraMax Plus plate-reader spectrophotometer.

E. coli AG100 = assay: Broth microdilution MIC assay; assay type: cell-based; settings: Escherichia coli, CA-MHB, 35° C., 20 hours
Procedure: as §3

K. pneumoniae A6030827 = assay: Broth microdilution MIC assay; assay type: cell-based; settings: Klebsiella pneumoniae, CA-MHB, 35° C., 20 hours
Procedure: as §3

[2] = test system: A. baumannii ATCC BAA1605; assay: Broth microdilution MIC assay; assay type: cell-based; settings: Acinetobacter baumannii, ATCCBAA1605; CA-MHB, 35° C., 20 hours
Procedure: as §3

[3] = test system: Acinetobacter baumannii ATCC 17978; assay: MIC against the in vivo test strain; assay type: cell-based; settings: A. baumannii ATCC 17978; for MIC: Acinetobacter baumannii, ATCC17978
Procedure: as §3, §2
On day 0, animals were anesthetized with etomidate-lipuro emulsion (20 mg/10 mL; 20 mg/kg dose, IV) and then inoculated intranasally with an A. baumannil ATCC 17978 suspension, 1.36×10^5 CFU/mouse, 0.02 mL/mouse. […] Efficacy is calculated as the change in log CFU/g thigh vs. the time 0 (treatment initiation) control.

A. baumannil ATCC 17978 = assay: Mouse lung infection model; assay type: in vivo, BALB/c mice; settings: for Mean change log CFU/g lung 24 hr / Mean change log CFU/g lung 72 hr: vs. time 0 control; for Mean Log CFU/g lung 24 hr: 24 hr treatment; for Mean Log CFU/g lung 72 hr: 72 hr treatment
Procedure: as §1, with “lung” for “thigh”
On day 0, animals were anesthetized with etomidate-lipuro emulsion (20 mg/10 mL; 20 mg/kg dose, IV) and then inoculated intranasally with an A. baumannil ATCC 17978 suspension, 1.36×10^5 CFU/mouse, 0.02 mL/mouse. Vehicle control (40% Captisol), positive control (tigecycline) or test substances were then administered 2 hr post infection by the subcutaneous (SC) route of administration. Each dosing group consisted of 5 female mice. The MICs of the compounds against the test strain were 8 μg/ml and 0.5 μg/ml for compound 201 and compound 200, respectively. At 26 or 74 hours after inoculation (24 or 72 hr after treatment initiation), animals were euthanized with CO2 asphyxiation and the lung tissue harvested from each of the test animals. The tissues were homogenized in 1 ml of PBS, pH 7.4 with a homogenizer. Homogenates, 0.1 mL, were used for serial 10-fold dilutions and plated onto MacConkey II agar for colony counts. Efficacy is calculated as the change in log CFU/g […] vs. the time 0 (treatment initiation) control.

[4] = biological target: FabI enzyme from Acinetobacter baumannii (Acinetobacter baumannii, UniProt D0CAD5); assay: Inhibition of FabI enzyme, rate of NADH consumption; assay type: biochemical
Procedure: Inhibition of FabI enzyme from Acinetobacter baumannii and Escherichia coli was tested by measuring the rate of NADH consumption (Δabsorbance at 340 nm/min) at 30° C. in 96-well plate format using an automated plate reader in the presence or absence of the test compounds. The assay mixture contained 100 mM Tris-HCl, pH 7.25 (A. baumannii) or 7.5 (E. coli), 100 mM ammonium acetate, 0.02% (A. baumannii) or 0.05% (E. coli) Pluronic F-68, 25 μM crotonyl ACP, 50 μM NADH, 25 pM (A. baumannii) or 50 pM (E. coli) recombinant FabI protein, and 7.5% DMSO. Test compounds were added at concentrations ranging from 0.17 to 10,000 nM in a final well volume of 100 μl. This dose-response inhibitory assay was performed using a 10-point, serial dilution series for each test compound. IC50 values for each test compound were assigned from logistical sigmoid curve-fitting of the inhibition dose response curves.

[5] = 25 mg/kg q6h SC, total daily dose 100 mg/kg
[6] = 50 mg/kg q6h SC, total daily dose 200 mg/kg
[7] = following both 24 hr and 72 hr treatment, SC

Chain of FabI enzyme from Acinetobacter baumannii (D0CAD5 entry or part of it): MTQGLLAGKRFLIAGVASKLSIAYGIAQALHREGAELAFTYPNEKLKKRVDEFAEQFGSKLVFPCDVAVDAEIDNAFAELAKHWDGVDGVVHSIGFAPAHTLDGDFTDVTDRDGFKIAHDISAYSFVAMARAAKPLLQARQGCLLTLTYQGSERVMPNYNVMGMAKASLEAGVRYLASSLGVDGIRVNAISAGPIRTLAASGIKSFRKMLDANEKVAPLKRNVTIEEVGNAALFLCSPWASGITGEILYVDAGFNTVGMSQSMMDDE

| SMILES | Mean Change log CFU/g thigh 72 hr ([1]; 25 mg/kg q6h SC) [log CFU/g thigh] | Mean Log CFU/g thigh 72 hr [1, 5] [log CFU/g thigh] | Mean Change log CFU/g thigh 24 hr ([1]; 50 mg/kg q6h SC) [log CFU/g thigh] | Mean Change log CFU/g thigh 72 hr ([1]; 50 mg/kg q6h SC) [log CFU/g thigh] | Mean Log CFU/g thigh 24 hr [1, 6] [log CFU/g thigh] | Mean Log CFU/g thigh 72 hr [1, 6] [log CFU/g thigh] | efficacy in words, thigh model summary ([1]; SC) | MIC (S. aureus ATCC 29213) [µg/mL] | MIC (E. coli AG100) [µg/mL] | MIC [2] [µg/mL] | MIC [3] [µg/mL] | Mean change log CFU/g lung 24 hr (A. baumannil ATCC 17978; 25 mg/kg q6h SC) [log CFU/g lung] | Mean change log CFU/g lung 72 hr (A. baumannil ATCC 17978; 25 mg/kg q6h SC) [log CFU/g lung] | Mean Log CFU/g lung 24 hr (A. baumannil ATCC 17978; [5]) [log CFU/g lung] | Mean Log CFU/g lung 72 hr (A. baumannil ATCC 17978; [5]) [log CFU/g lung] | Mean change log CFU/g lung 24 hr (A. baumannil ATCC 17978; 50 mg/kg q6h SC) [log CFU/g lung] | Mean change log CFU/g lung 72 hr (A. baumannil ATCC 17978; 50 mg/kg q6h SC) [log CFU/g lung] | Mean Log CFU/g lung 24 hr (A. baumannil ATCC 17978; [6]) [log CFU/g lung] | Mean Log CFU/g lung 72 hr (A. baumannil ATCC 17978; [6]) [log CFU/g lung] | further results |
| --- | --- | --- | --- | --- | --- | --- | --- | --- | --- | --- | --- | --- | --- | --- | --- | --- | --- | --- | --- | --- |
| Cc1c(CN(C)C(=O)/C=C/c2cnc3c(c2)CC[C@H](N)C(=O)N3)oc2ccccc12.Cl (single isomer, unassigned) [Compound 71] | 2.25 | 7.09 | 0.60 | 1.10 | 5.45 | 5.95 | very slight efficacy | ≤ 4 | ≤ 4 | ≤ 4 | 2 |  |  |  |  |  |  |  |  | MIC (K. pneumoniae A6030827): ≤ 4 µg/mL |
| Cc1oc2ccccc2c1CN(C)C(=O)/C=C/c1cnc2c(c1)CC[C@H](N)C(=O)N2 [Compound 200, (S,E)-3-(7-amino-8-oxo-6,7,8,9-tetrahydro-5H-pyrido[2,3-b]azepin-3-yl)-N-methyl-N-((2-methylbenzofuran-3-yl)methyl)acrylamide] | −2.27 | 2.58 | −2.53 | −2.14 | 2.31 | 2.71 |  | ≤ 4 | ≤ 4 | ≤ 4 | 0.5 (≈ 1.24 µM) | −2.44 | −2.21 | 3.86 | 4.09 | −3.50 | −3.39 | 2.80 | 2.91 | efficacy (log kill), lung model (A. baumannil ATCC 17978; [7]): 2.5-3.5 log kill; efficacy (log kill), thigh model [1, 7]: 2.1-2.4 log kill; IC50 ([4]; recombinant FabI, 30° C., pH 7.25, read-out: A. baumannii Fabl IC50): < 10 nM; MIC against the test strain [3]: 0.5 µg/mL (≈ 1.24 µM) |
| Cc1c(CN(C)C(=O)/C=C/c2cnc3c(c2)CC(N)C(=O)N3)oc2ccccc12.Cl (stereo not drawn) [Compound 201, (E)-3-(6-amino-7-oxo-5,6,7,8-tetrahydro-1,8-naphthyridin-3-yl)-N-methyl-N-((3-methylbenzofuran-2-yl)methyl)acrylamide hydrochloride, reference compound] | 2.24 | 7.09 | 2.26 | 1.86 | 7.11 | 6.70 | no efficacy |  | 8 | 16 | 8 | 1.02 | 0.21 | 7.32 | 6.51 | 0.26 | −0.35 | 6.56 | 5.95 | efficacy in words, lung model summary (A. baumannil ATCC 17978; SC, 24 hr and 72 hr treatment): very slight efficacy; IC50 [4]: 19 nM |

Source: patent publication US12473283B2, “Compounds and their use” (Debiopharm International S.A., priority 2019, dated 2025)
